Legend:
[1] = tested on: acetyl tubulin in H9c2 cells; assay: Effect on acetyl tubulin in H9c2 cells (western blot); assay type: cell-based, Rat; conditions: treated for each concentration, four hours at 37° C., western blot vs GAPDH (FIGS. 1 and 2)
Procedure: H9c2 (2.0×10^5 cells/well, Rat, heart, myoblast) cells were seeded in a six-well plate and treated with drugs (compounds 43, 295, 296, 40, 239, and 285) for each concentration. In four hours later at 37° C., proteins were extracted with lysis buffer and quantified by Bradford method. […] of proteins were dissolved in sample buffer, electrophoresed on 4-12% gradient gel, transferred to a nitrocellulose membrane for seven minutes, and blocked in 3% BSA solution for one hour. Anti-acetyl tubulin (1:1,000) and GAPDH (1:2,000) were added to a 3% BSA solution, after which the membrane was immersed therein and reacted at 4° C. for 10 hours, and then washed three times with 1×TBST for 10 minutes each. IgG-HRP antibody (1:5,000) was added to 5% BSA, after which the membrane was immersed therein and reacted at room temperature for one hour, and then washed three times with 1×TBST for 10 minutes each.

[2] = tested on: beagle dogs with induced heart disease; assay: Anti-fibrotic activity in tachycardia pacing heart disease model (western blot of cardiac tissue); assay type: in vivo, beagle dog; conditions: 1 mg/kg capsule, Bid, P.O.; tachycardia pacing 400 bpm; compared to group not dosed (FIG. 7)
Procedure: For the introduction of anesthetic to the beagle dogs (male, 11 months old), pentobarbital (25 mg/kg) was intravenously administered thereto, and anesthesia was maintained through Isoflurane. A pacemaker's in vivo implantable electrode (bipolar pacing lead, Medtronic, IRE) was placed in the right atrial appendage by using C-arm (ARCADIS Varic, SIEMENS Co.) equipment and vascular contrast media, and then it was checked if the same was correctly inserted through a contrast image, and then the pacemaker's lead was fixed in the right atrial appendage. After stabilization for one week after surgery, the pacemaker was operated at 400 bpm to confirm normal induction by electrocardiography, and then tachycardia pacing was induced. Hemodynamic parameters for each group were measured. […]
In order to confirm the effect of the compound according to the present disclosure on preventing or treating heart failure disease, the expression of α-SMA and TGF-β, which are directly related to fibrosis in cardiac tissues, was analyzed. […] The expression of α-SMA and TGF-β was analyzed for each protein through western blot, so as to compare the degree of cardiac fibrosis between groups, and the results thereof are shown in FIG. 7.

[3] = tested on: iPSC-CM myocardial cells derived from patients with dilated cardiomyopathy (DCMP) heart failure; assay: Ca2+ transient activity in DCMP iPSC-CM accompanied by TPM1 mutation; assay type: cell-based, human; conditions: 0.1-3 μM for 24 hours, 3 Hz stimulation 24 hours, Fluo-4 (FIG. 9)
Procedure: In order to confirm the effect of the compound according to the present disclosure on preventing or treating heart failure disease, Ca^2+ transients in iPSC-CM myocardial cells derived from patients with dilated cardiomyopathy (DCMP) heart failure were analyzed.
Myocardial cells derived from patients with heart failure were treated with compound 43 (Synthesis Example 1) for each concentration for 24 hours. After that, 3 Hz stimulation was given to both iPSC-CM myocardial cells derived from normal people (normal group, Normal) and iPSC-CM myocardial cells derived from patients with dilated cardiomyopathy (DCMP) heart failure for 24 hours in heart damage mimicking conditions (Tachycardia pacing). After each group was treated with Fluo-4 (AM, cell permeant-Thermo Fisher Scientific), a cell-permeable calcium dye, Ca^2+ images were taken in real time with a confocal microscope, so as to compare and analyze Ca^2+ transients between groups. Then, the results of the cells obtained from normal people are shown in FIG. 8, while the results of the cells obtained from patients with DCMP heart failure are shown in FIG. 9. Normal in above FIG. 8 may refer to myocardial cells not treated with Tachycardia pacing, and 0, 0.1, 1 and 3 in FIGS. 8 and 9 may represent the concentrations of compound 43 (compound of Synthesis Example 1) in cells treated with Tachycardia pacing. […]

[4] = tested on: isolated heart of normal rabbits; assay: Langendorff evaluation of heart safety (Q-T interval of ECG); design: species or system Rabbit; conditions: for Q-T interval: normal rabbit heart, ECG 30 minutes later, n = 6, mean ± standard error; for effect on QT interval compared to normal ECG (in words): dofetilide 0.3 μM and 1 μM, compound 43 1 μM (FIGS. 5 and 6)
Procedure: (§1) The male rabbits were anesthetized by breathing, and the hearts were removed therefrom. After removing the connective tissues, the hearts were perfused with 37° C. physiological solution (modified KrebsHenseleit bicarbonate buffer; composition: 116 mM/L NaCl, 4.7 mM/L KCl, 1.1 mM/L MgSO4, 1.17 mM/L KH2PO4, 24.9 mM/L NaHCO3, 2.52 mM/L CaCl2), 8.32 mM/L glucose) saturated with 95% O2/5% CO2 under constant pressure perfusion, and electrodes were connected at the atrium and ventricle so as to confirm a stabilization state by measuring an electrocardiogram for one hour.
After confirming the stabilization state of the heart through the electrocardiogram for one hour, the compound was administered to the physiological solution, and the electrocardiogram was measured in 30 minutes later so as to analyze the Q-T interval.
Using dofetilide as a control drug, the effect of the compound according to the present disclosure (compound 43: compound of Synthesis Example 1) on the QT interval of ECG was confirmed in normal rabbits.
Rabbits were prepared under the same conditions as in 1) and divided into a normal group, a dofetilide-treated group, and a compound 43-treated group, after which the hearts of the rabbits were extracted according to the Langendorff experimental method in 2-2), so as to analyze the Q-T interval according to 2-3), and the results thereof are shown in FIGS. 5 and 6 and in Tables 2 and 3 below. In above FIGS. 5 and 6 and Tables 2 and 3, the Control may refer to a normal group, and all data values in Tables 2 and 3 are expressed as mean standard error.

[5] = tested on: acetylated tubulin in atrial and ventricular tissues; assay: Acetylated tubulin in atrial and ventricular tissues in heart damage mimicking conditions (Tachycardia pacing); design: species or system Rabbit; conditions: compound in physiological solution, western blot, compared to vehicle (FIGS. 10 and 11)
Procedure: Male rabbits were prepared in the same manner as in Example 1, and the rabbits were divided into a normal group (Sham), a drug-untreated group (vehicle), and a drug-treated group (Compound).
After that, the heart was evaluated by the Langendorff experimental method as in 2-1) of 2) in Example 2. For the drug-treated group, the heart was treated with the drug by administering compound 43 (compound according to Synthesis Example 1) to physiological solution as in 2-2) of 2) in Example 2.
Then, the atria and the ventricles were separated, and then proteins were isolated from each tissue. The expression of acetylated tubulin was analyzed for each protein through western blot, so as to compare the expression levels between groups, and the results thereof are shown in FIGS. 10 and 11. * may mean P<0.05, ** may refer to P<0.01, and *** may represent less than P<0.001.

isolated rabbit heart = assay: Langendorff evaluation of ventricular functions in heart damage mimicking conditions (Tachycardia pacing)
Text: The Langendorff test method was used to evaluate the therapeutic effect of the compound on heart damage. The Langendorff test method is known as a test method that helps to determine the direct effect of the compound on the heart in terms of efficacy and safety. In particular, the method is easy to measure actual cardiac contractility and heart rates by removing peripheral hemodynamic variables that may extracardially interfere in experimental animals, and has the advantage of being able to intensively investigate a correlation between chemical structure and pharmacological action using various doses of the compound.
as §1
After confirming the stabilization state of the heart for one hour through an electrocardiogram, a heart damage stimulation with 50 Hz tachycardia pacing was applied for 30 minutes. After measuring the electrocardiogram of the atrium and ventricle, a test target compound (compound 43: the compound of […]) was administered to physiological solution, and the electrocardiogram was measured in one hour later. In order to check whether a drug effect is maintained even after the compound is removed from the physiological solution, the physiological solution containing the compound, in which the rabbit heart was immersed, was washed out, and the physiological solution without the compound was administered, so as to measure the electrocardiogram in one hour later.
The effect of the compound on improving ventricular functions was analyzed in ex vivo heart damage mimicking conditions (Tachycardia pacing), and the results thereof are shown in FIGS. 3 and 4 and Table 1. In above FIG. 4, ** on the graph may refer to P<0.01 when compared with the normal group(Sham), and ## may mean P<0.01 when compared with Tachycardia pacing (Comparative group, vehicle).

Structure (SMILES): O=C(N1CCS(=O)(=O)CC1)N(Cc1ccc(-c2nnc(C(F)F)o2)cn1)c1cccc(Cl)c1 [Compound 239, N-(3-chlorophenyl)-N-((5-(5-(difluoromethyl)-1,3,4-oxadiazol-2-yl)pyridin-2-yl)methyl)thiomorpholine-4-carboxamide 1,1-dioxide]
- concentration of acetyl tubulin in H9c2 cells [1]: increase the concentration of acetyl tubulin in H9c2 cells in a concentration-correlated manner

Structure (SMILES): O=C(N1CCS(=O)(=O)CC1)N(Cc1ccc(-c2nnc(C(F)F)o2)cn1)c1ccccc1 [compound 43, N-((5-(5-(difluoromethyl)-1,3,4-oxadiazol-2-yl)pyridin-2-yl)methyl)-N-phenylthiomorpholine-4-carboxamide 1,1-dioxide]
- expression of TGF-β in cardiac tissue [2]: reduced expression
- expression of α-SMA in cardiac tissue [2]: reduced expression
- Ca2+ transients [3]: Ca^2+ transients are recovered
- Q-T interval ([4]; 1 μM): 125.4 ± 1.7 ms
- effect on QT interval compared to normal ECG (in words) [4]: not affected
- expression of acetylated tubulin in atria and ventricles [5]: restored to that of the normal group (Sham)
- R-R interval, Average (isolated rabbit heart; 1 μM in physiological solution, ECG one hour later, after 50 Hz tachycardia pacing for 30 minutes): 240.8 ms
- electrocardiogram (ventricular functions) (isolated rabbit heart; 1 μM, tachycardia pacing (FIG. 3)): improved to a degree of the normal group (Control)
- cardioversion effect after the compound is removed (isolated rabbit heart; after wash out of 1 μM compound (FIG. 3)): maintained for at least one hour
- R-R interval, Average, Wash out (isolated rabbit heart; one hour after compound washed out of physiological solution, after 50 Hz tachycardia pacing): 239.9 ms
- concentration of acetyl tubulin in H9c2 cells [1]: increase the concentration of acetyl tubulin in H9c2 cells in a concentration-correlated manner

Structure (SMILES): CN(CCOc1ccc(NS(C)(=O)=O)cc1)CCc1ccc(NS(C)(=O)=O)cc1 [Dofetilide, dofetilide]
- Q-T interval ([4]; 0.3 μM): 199.2 ± 17.8 ms
- Q-T interval ([4]; 1 μM): 205.4 ± 26.3 ms
- effect on QT interval compared to normal ECG (in words) [4]: increased at both 0.3 μM and 1 μM

Structure (SMILES): O=C(N1CCS(=O)(=O)CC1)N(Cc1ccc(-c2nnc(C(F)F)o2)cn1)c1ccc(F)cc1 [Compound 295, N-((5-(5-(difluoromethyl)-1,3,4-oxadiazol-2-yl)pyridin-2-yl)methyl)-N-(4-fluorophenyl)thiomorpholine-4-carboxamide 1,1-dioxide]
- concentration of acetyl tubulin in H9c2 cells [1]: increase the concentration of acetyl tubulin in H9c2 cells in a concentration-correlated manner

Structure (SMILES): O=C(N1CCS(=O)(=O)CC1)N(Cc1ccc(-c2nnc(C(F)F)o2)cn1)c1cccc(F)c1 [Compound 296, N-((5-(5-(difluoromethyl)-1,3,4-oxadiazol-2-yl)pyridin-2-yl)methyl)-N-(3-fluorophenyl)thiomorpholine-4-carboxamide 1,1-dioxide]
- concentration of acetyl tubulin in H9c2 cells [1]: increase the concentration of acetyl tubulin in H9c2 cells in a concentration-correlated manner

Structure (SMILES): O=C(N1CCS(=O)(=O)CC1)N(Cc1ccc(-c2nnc(C(F)F)o2)cc1F)c1ccccc1 [Compound 40, N-(4-(5-(difluoromethyl)-1,3,4-oxadiazol-2-yl)-2-fluorobenzyl)-N-phenylthiomorpholine-4-carboxamide 1,1-dioxide]
- concentration of acetyl tubulin in H9c2 cells [1]: increase the concentration of acetyl tubulin in H9c2 cells in a concentration-correlated manner

Structure (SMILES): O=C(N1CCS(=O)(=O)CC1)N(Cc1ccc(-c2nnc(C(F)F)o2)cc1F)c1ccc(F)cc1 [Compound 285, N-(4-(5-(difluoromethyl)-1,3,4-oxadiazol-2-yl)-2-fluorobenzyl)-N-(4-fluorophenyl)thiomorpholine-4-carboxamide 1,1-dioxide]
- concentration of acetyl tubulin in H9c2 cells [1]: increase the concentration of acetyl tubulin in H9c2 cells in a concentration-correlated manner
